Experimental data published in patent US5073566A, “Angiotensin II antagonist 1,3-imidazoles and use thereas” (Eli Lilly and Company, priority 1989, dated 1991).
Like-named read-outs stand apart in the source and are kept apart here.

Legend:
angiotensin II receptor = test: Adrenal Glomerulosa Test System: I125-angiotensin II binding to adrenal membranes; settings: percent inhibition of I125 angiotensin binding at 10^-5 M of antagonist; rat adrenal membranes; 0.1 nM I125-angiotensin II
Description: The ability for compounds of Formula I to block angiotensin II receptor binding was determined using the adrenal glomerulosa assay.
Binding of I^125 -angiotensin II to adrenal membranes was routinely carried out in 96-well filtration plates. Adrenal membranes were prepared from the capsular portion (glomerulosal layer attached) of rat adrenal glands by differential centrifugation. Briefly, capsules were homogenized in a solution containing sucrose, 250 mM; MgCl2, 1 mM; and tris, 5 mM at pH 7.5 and 4° C. using a polytron at setting 5 for 20 seconds. The homogenate was stirred, gently, for 15 minutes at 4° C. and then centrifuged 10 minutes, at 1000×g, 4° C. The supernatant was centrifuged 30 minutes, at 30,000 ×g, 4° C. and the resulting pellet resuspended in 50 mM tris. Membrane preparations were stored in aliquots at -70° C. until used. Binding of I^125 -angiotensin II to adrenal membranes was performed at room temperature for 90 minutes in 96-well plates containing a hydrophilic polyvinylidene fluoride membrane (0.45 μm, millipore-GV multiscreen). Each 250 μl incubate contained the following (final concentration): tris, 50 mM; NaCl, 120 mM; MgCl2, 5 mM; dithiothrietol 1 mM; bovine serum albumin, 0.05%; I^125 -angiotensin II, 0.1 nM; and adrenal membrane protein, 8-15 μg. Antagonists were added in concentrations from 10 nM to 100 μM. Non-specific binding was measured in the presence of 0.1 μM Sar1, Ile8 angiotensin II. Binding was terminated by vacuum filtration. Receptor-ligand complex trapped on filters was washed 3 times with 300 μl ice-cold wash solution (tris, 50 mM; NaCl, 120 mM; MgCl2, 5 mM; dithiothrietol, 1 mM). Filter discs were dried, punched out and counted in a gamma counter at 52% efficiency. Specific binding represented 96% of total binding (approximately 150 fmol angiotensin II/mg protein). Data are expressed as the percent inhibition of I^125 angiotensin binding at 10^-5 M of antagonist.

[1] = target: T1, angiotensin-induced vasoconstriction (rabbit aorta) (Oryctolagus cuniculus, UniProt P34976); test: Rabbit Aorta Test System: antagonism of angiotensin II-induced contraction of aortic rings; assay type: cell-based, New Zealand white rabbits
T1 construct: the thoracic aortas were removed and cleaned of excess fat and connective tissue; from tissue; host or cells: thoracic aorta rings of New Zealand white rabbits
T1 sequence (P34976 1-359): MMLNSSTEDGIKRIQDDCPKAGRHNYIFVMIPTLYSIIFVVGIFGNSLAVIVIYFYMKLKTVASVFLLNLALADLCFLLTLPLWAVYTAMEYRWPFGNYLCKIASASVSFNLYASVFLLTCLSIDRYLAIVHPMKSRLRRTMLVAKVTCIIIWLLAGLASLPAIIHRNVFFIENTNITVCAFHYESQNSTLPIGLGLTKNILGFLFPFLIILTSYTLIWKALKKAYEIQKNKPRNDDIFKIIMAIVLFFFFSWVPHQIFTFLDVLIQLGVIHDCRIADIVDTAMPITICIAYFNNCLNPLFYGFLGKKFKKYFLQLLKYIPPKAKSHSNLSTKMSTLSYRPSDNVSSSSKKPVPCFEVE
Description: The ability to antagonize angiotensin-induced vasoconstriction was evaluated in the rabbit aorta test system.
New Zealand white rabbits (Hazelton, 2-3 kg) were sacrificed by cervical dislocation and the thoracic aortas were removed and cleaned of excess fat and connective tissue. Rings of tissue (3 mm wide) were mounted in 10 ml tissue baths between 2 L-shaped stainless steel hooks. The lower hook was attached to a stationary rod and the upper hook to a force displacement transducer (Grass model FT.03). The bath chambers were maintained at 37° C., aerated with 95% O2 /5% CO2, and contained physiological solution of the following composition (mM): NaCl, 117; glucose, 5.6; NaH2 PO4, 1.0; MgSO4, 0.7; KCl, 5.2; CaCl2, 1.8; NaHCO3, 26; and phentolamine HCl, 0.003.
Rings were equilibrated for 1 hour with 2 g of tension. During the equilibration period, the tissues were washed by overflow every 15 minutes. Rings were then exposed to 10^-8 M angiotensin II (AII) and were allowed to contract until a steady state was reached. Tissues were then washed every 15 minutes for 1 hour. This was repeated every hour until the AII response stabilized. A cumulative concentration-response curve to AII (10^-10 to 10^-7 M) was then obtained. At the conclusion of the concentration-response curve, tissues were washed every 2 minutes until baseline tension was reached, then every 15 minutes for 30 minutes. Compounds were added in a volume of 10 μl DMSO and allowed to incubate for 30 minutes before repeating the concentration-response curve to AII. Contractions to AII were expressed as a percent of the maximum contraction obtained in the control curve (the first AII concentration-response curve). EC50 's (concentration that contracted the tissues to 1/2 the control maximum) for each curve were calculated using a 4 parameter logistics model (NonLin, SAS institute).

[2] = pA2 = -log KB, KB = [molar concentration of antagonist]/[(EC50 AII with antagonist/EC50 AII without antagonist)-1], 30 min incubation, AII 10^-10 to 10^-7 M, read-out: Rabbit Aorta (pA2) (converted)

Row | Adrenal Glomerulosa (% Inhibition of Binding) (angiotensin II receptor) | Kb [1, 2] | Compound | Kb [1]
1 | 42% | 6.03 µM | CCCCCCC(C(=O)O)n1ccc(C(=O)NC(c2ccccc2)c2ccccc2)c1 (stereo not drawn) [Example 53, 3-{[(Diphenylmethyl)amino]carbonyl}-α-hexyl-1H-pyrrole-1-acetic acid] | 
2 | 5% | 11.7 µM | CCCCCCC(C(=O)O)n1cnc(NC(=O)c2cc(C(=O)O)ccc2O)c1 (stereo not drawn) [Example 36, α-Hexyl-4-[(2-hydroxy-5-carboxybenzoyl)amino]-1H-imidazole-1-acetic acid] | 
3 | 57% | 10.2 µM | CCCCCCC(C(=O)O)n1cnc(NC(=O)C(CC)(c2ccccc2)c2ccccc2)c1 (stereo not drawn) [Example 26, α-Hexyl-4-[(1-oxo-2,2-diphenylbutyl)amino]-1H-imidazole-1-acetic acid] | 
4 | 69% | 4.27 µM | CCCCCCC(C(=O)O)n1cnc(C(=O)NC(c2ccccc2)c2ccccc2)c1.Cl (stereo not drawn) [Example 58, 4-{[(Diphenylmethyl)amino]carbonyl}-α-hexyl-1H-imidazole-1-aceticacid hydrochloride] | 
5 | 58% | 0.331 µM | CCCCCCC(C(=O)O)n1cnc(NC(=O)c2ccccc2-c2nnn[nH]2)c1.O (stereo not drawn) [Example 42, α-Hexyl-4-{[2-(tetrazol-5-yl)benzoyl]-amino}-1H-imidazole-1-acetic a cid monohydrate] | 
6 | 58% | 1.66 µM | CCCCCCC(C(=O)O)c1ccc(Cc2ccccc2C(=O)O)cc1 (stereo not drawn) [Example 94, 4-[(2-Carboxyphenyl)methyl]-α-hexyl-benzeneacetic acid] | 
7 | 75% | 1.05 µM | CCCCCCC(C(=O)O)c1ccc(C(=O)c2ccccc2C(=O)O)cc1 (stereo not drawn) [Example 56, α-Hexyl-4-(2-carboxybenzoyl)benzeneacetic acid] | 
8 | 40% | 13.8 µM | CCCCCCC(C(=O)O)n1cc(C(=O)NC(c2ccccc2)c2ccccc2)cn1 (stereo not drawn) [Example 54, 4-{[(Diphenylmethyl)amino]carbonyl}-α-hexyl-1H-pyrazole-1-acetic acid] | 
9 | 42% | 0.631 µM | CCCCCCC(C(=O)O)n1cnc(NC(=O)c2ccccc2C(=O)O)c1 (stereo not drawn) [Example 33, 4-[(2-Carboxybenzoyl)amino]-α-hexyl-1H-imidazole-1-acetic acid] | 
10 | 35% | 1.26 µM | CCCCCCC(C(=O)O)n1cnc(NC(=O)c2ccccc2O)c1 (stereo not drawn) [Example 76, α-Hexyl-4-[(2-hydroxybenzoyl)amino]-1H-imidazole-1-acetic acid] | 
11 | 10% | 3.47 µM | CCCCCCC(C(=O)O)n1cnc(NC(=O)c2ccc(C)cc2C(=O)O)c1 (stereo not drawn) [Example 28, α-Hexyl-4-[(2-carboxy-4-methylbenzoyl)amino]-1H-imidazole-1-acetic a cid] | 
12 | 54% | 21.4 µM | CCCCCCC(C(=O)O)n1cnc(NC(=O)C2c3ccccc3Oc3ccccc32)c1.Cl.O (stereo not drawn) [Example 32, α-Hexyl-4-[(9H-xanthen-9-ylcarbonyl)amino]-1H-imidazole-1-acetic acid hydrochloride monohydrate] | 
13 | 25% | 18.2 µM | CCCCCCC(C(=O)OCC)c1ccc(NC(=O)c2ccccc2C(=O)O)cc1 (stereo not drawn) [Example 9, 4-[(2-Carboxybenzoyl)amino]-α-hexylbenzene-acetic acid ethyl ester] | 
14 | 61% | 12 µM | CCCCCCC(c1nnn[nH]1)n1cnc(C(=O)NC(c2ccccc2)c2ccccc2)c1 (centres unmarked) [Example 48, 1-[1-(Tetrazol-5-yl)heptyl]-N-(diphenylmethyl)-1H-imidazole-4-carboxamide] | 
15 | 18% | 11 µM | CCCCCCC(C(=O)O)n1cnc(NC(=O)c2ccc(O)c(O)c2)c1 (stereo not drawn) [Example 79, α-Hexyl-4-[(3,4-dihydroxybenzoyl)amino]-1H-imidazole-1-acetic acid (1.75 hydrate)] | 
16 | 30% | 0.646 µM | CCCCCCC(CCC(=O)O)n1cnc(NC(=O)c2ccccc2C(=O)O)c1 (centres unmarked) [Example 41, 4-[(2-Carboxybenzoyl)amino]-γ-hexyl-1H-imidazole-1-butanoic acid hemihydrate] | 
17 | 39% | 5.01 µM | CCCCCCC(C(=O)O)n1nnc(NC(=O)c2ccccc2C(=O)O)n1 (stereo not drawn) [Example 47, 5-[(2-Carboxybenzoyl)amino]-α-hexyl-2H-tetrazole-2-acetic acid] | 
18 | 31% | 1.91 µM | CCCCCCC(C(=O)O)n1cnc(NC(=O)Cc2ccccc2C(=O)O)c1.O (stereo not drawn) [Example 34, α-Hexyl-4-{[(2-carboxyphenyl)acetyl]-amino}-1H-imidazole-1-aceticacid hydrate] | 
19 | 44% | 0.661 µM | CCCCCCC(CC(=O)O)n1cnc(NC(=O)c2ccccc2C(=O)O)c1.O (stereo not drawn) [Example 39, 4-[(2-Carboxybenzoyl)amino]-β-hexyl-1H-imidazole-1-propanoic acid monohydrate] | 
20 | 13% | 1.26 µM | CCCCCC(C(=O)O)c1ccc(Oc2ccccc2C(=O)O)cc1 (stereo not drawn) [Example 55, α-Pentyl-4-(2-carboxyphenoxy)phenylacetic acid] | 
21 | 36% | 2.63 µM | CCCCCCC(C(=O)O)n1cnc(NC(=O)c2c(C(=O)O)ccc3ccccc23)c1 (stereo not drawn) [Example 35, α-Hexyl-4-{[(2-carboxy-1-naphthalenyl)carbonyl]amino}-1H-imidazole-1-acetic acid] | 
22 | 36% | 5.5 µM | CCCCCCC(C(=O)O)n1cnc(NC(=O)c2c(O)ccc3ccccc23)c1 (stereo not drawn) [Example 77, α-Hexyl-4-{[(2-hydroxy-1-naphthalenyl)-carbonyl]amino}imidazole-1-acetic acid] | 
23 | 53% | 3.89 µM | CCCCCCC(C(=O)O)n1cnc(C(=O)Nc2ccccc2CO)c1.Cl (stereo not drawn) [Example 83, α-Hexyl-4-({[2-(hydroxymethyl)phenyl]-amino}carbonyl)-1H-imidazole-1-acetic acid hydrochloride] | 

Row | Compound | Adrenal Glomerulosa (% Inhibition of Binding) (angiotensin II receptor) | Kb [1, 2] | Kb [1]
24 | CCCCCCC(C(=O)O)c1ccc(NC(=O)C2(O)c3ccccc3-c3ccccc32)cc1 (stereo not drawn) [Example 46, α-Hexyl-4-[(9-hydroxy-9H-fluoren-9-ylcarbonyl)-amino]benzeneacetic acid] | 39% |  | 43.7 µM
25 | CCCCCCC(C(=O)O)n1cnc(NC(=O)C2(O)c3ccccc3-c3ccccc32)c1 (stereo not drawn) [Example 59, α-Hexyl-4-[(9-hydroxy-9H-fluoren-9-ylcarbonyl)-amino]-1H-imidazole-1-acetic acid] | 67% |  | 3.09 µM
